Consider 106 compounds from PubChem BioAssay AID1552 (Sanford-Burnham Center for Chemical Genomics, 2009).

The source made the active and inactive calls. How the calls were made is not given here.

Broadly, the Kd is the constant that tells how readily two partners part at equilibrium.

In the assay the target is Ubiquitin-conjugating enzyme E2 N (Homo sapiens) (UniProt P61088). Nature of the assay: NMR detection of UBE2N ligand binding – biophysical, purified protein (AID 1552). The conditions noted are these: NMR binding to purified UBE2N.
Sequence of Ubiquitin-conjugating enzyme E2 N (Homo sapiens) (P61088 whole entry, looked up): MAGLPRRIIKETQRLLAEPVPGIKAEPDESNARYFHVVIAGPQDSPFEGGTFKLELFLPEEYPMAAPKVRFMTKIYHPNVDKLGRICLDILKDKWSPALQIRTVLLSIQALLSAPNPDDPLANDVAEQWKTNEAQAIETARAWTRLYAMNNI
Regarding `Cn1nnc2c(N3CCC(C(N)=O)CC3)ncnc21`, the Kd is > 4 mM (inactive).

In the case of `Nc1nc2ccccc2n1CCN1CCCC1`, the Kd is > 4 mM (inactive).

Regarding `COc1ccccc1C(=O)NC1CCN(C)CC1`, the Kd is > 4 mM (inactive).

In the case of `C[C@@H]1O[C@@H](O[C@H]2[C@@H](Oc3cc(O)c4c(c3)O[C@H](c3ccc(O)cc3)CC4=O)O[C@H](CO)[C@@H](O)[C@@H]2O)[C@H](O)[C@H](O)[C@H]1O`, the Kd is > 4 mM (inactive).

For `Oc1ccccc1-c1cc(C(F)(F)F)[nH]n1`, the Kd was > 4 mM (inactive).

In the case of `CN(C)CCCN1CNC(=S)NC1`, the Kd was > 4 mM (inactive).

On to `c1csc(-c2nnc3ccccn23)c1`, for which the Kd was > 4 mM (inactive).

With `OCC12COC3c4ccccc4C(OC1)N32` (stereo unspecified), the Kd was > 4 mM (inactive).

As for `COC(=O)Nc1nc2c(s1)CCCC2`, the Kd was > 4 mM (inactive).

As for `Cc1cccc(NC(=O)c2ccc(=O)[nH]n2)c1`, the Kd is > 4 mM (inactive).

In the case of `CN1C(=O)Cc2cc(S(N)(=O)=O)ccc21`, the Kd is > 4 mM (inactive).

As for `Cn1c(SCC(=O)NCCO)nc2ccccc2c1=O`, the Kd is > 4 mM (inactive).

As to `CCC(=O)Nc1cccc(NC(C)=O)c1`, the Kd was > 4 mM (inactive).

For the compound `O=C(NN1C(=O)CSC1=S)c1ccccc1`, the Kd was > 4 mM (inactive).

`Cc1ccc(CN2CCN(C(=O)C3CCC3)CC2)cc1`: the Kd is > 4 mM (inactive).

On to `Cc1ccc2nc(SCC(=O)O)nc(C)c2c1`, for which the Kd was > 4 mM (inactive).

Regarding `Cc1csc2nc3ccccc3c(=O)n12`, the Kd was > 4 mM (inactive).

Turning to `O=C1CC2OCC=C3CN4CC[C@]56c7ccccc7N1C5[C@H]2[C@H]3CC46` (stereo partly specified), the Kd is > 4 mM (inactive).

Regarding `CCOc1ccc(C)cc1S(=O)(=O)n1ccnc1`, the Kd is > 4 mM (inactive).

For `COc1c2ccoc2cc2oc(C)cc(=O)c12`, the Kd was > 4 mM (inactive).

As to `Cn1nc(-c2ccccc2)cc1N`, the Kd was > 4 mM (inactive).

Turning to `CCCCCC1C(=O)CCC1CC(=O)O` (stereo unspecified), the Kd is > 4 mM (inactive).

As to `CNC(Cc1c[nH]c2ccccc12)C(=O)O` (stereo unspecified), the Kd was > 4 mM (inactive).

Turning to `CSc1ccc2nnc(-c3cccnc3)n2n1`, the Kd is > 4 mM (inactive).

Regarding `C[n+]1cccc(C(=O)[O-])c1`, the Kd is > 4 mM (inactive).

In the case of `C=CCCCCCCCCCCCc1ccco1`, the Kd is > 4 mM (inactive).

Turning to `O=S(=O)(Cc1ccccc1)N1CCCCCC1`, the Kd is > 4 mM (inactive).

Take `O=C(NC1CCS(=O)(=O)C1)c1ccccc1` (stereo unspecified): the Kd was > 4 mM (inactive).

Take `CC1(C)C2CC[C@]3(C)C(C(=O)C=C4[C@H]5C[C@@](C)(C(=O)O)CC[C@]5(C)CC[C@]43C)[C@@]2(C)CC[C@@H]1O` (stereo partly specified): the Kd is > 4 mM (inactive).

`CCOC(=O)C1C(C=C(C)C)C1(C)C` (stereo unspecified): the Kd is > 4 mM (inactive).

For the compound `O=C(Nn1cnnc1)c1cccc(C(F)(F)F)c1`, the Kd was > 4 mM (inactive).

Consider `CSc1ccccc1NC(=O)c1ccc(C)o1`, for which the Kd was > 4 mM (inactive).

As for `CCCS(=O)(=O)N1CCN(c2ccccc2F)CC1`, the Kd is > 4 mM (inactive).

Take `COc1cc2c(cc1-c1cc3cc4ccoc4cc3oc1=O)OCO2`: the Kd was > 4 mM (inactive).

On to `Cc1ccc2c(c1)CCCN2C(=O)c1ccncc1`, for which the Kd is > 4 mM (inactive).

Consider `O=C(Oc1ccc(-c2nnco2)cc1)N1CCOCC1`, for which the Kd was > 4 mM (inactive).

Regarding `NC(=O)C1CCN(C(=O)c2ccccc2F)CC1`, the Kd was > 4 mM (inactive).

On to `OCc1ccc2nonc2c1`, for which the Kd was > 4 mM (inactive).

For `O=C1NC(=S)N/C1=C\c1ccccc1F`, the Kd is > 4 mM (inactive).

Regarding `Cc1nc2ccc(C(=O)O)cc2[nH]1`, the Kd is > 4 mM (inactive).

Turning to `COC(=O)C1CCc2ccccc2N1` (stereo unspecified), the Kd was > 4 mM (inactive).

In the case of `O=C(O)c1ccc2ncccc2c1`, the Kd is > 4 mM (inactive).

With `NC(=O)CSCc1c(Cl)cccc1Cl`, the Kd is > 4 mM (inactive).

As to `O=C(NCc1ccco1)c1ccc(=O)[nH]c1`, the Kd was > 4 mM (inactive).

With `COc1cccc(-c2nc3ccc(O)cc3c(=O)o2)c1`, the Kd is > 4 mM (inactive).

For `O=C(c1ccccc1-c1ccccc1)N1CCOCC1`, the Kd was > 4 mM (inactive).

Turning to `CCC(=O)Nc1ccc(-c2nn3c(C)nnc3s2)cc1`, the Kd is > 4 mM (inactive).

Consider `CNC(=S)Nc1ncn(Cc2cccc(F)c2)n1`, for which the Kd was > 4 mM (inactive).

Consider `CC(=O)NC(O)C(=O)c1cccs1` (stereo unspecified), for which the Kd was > 4 mM (inactive).

For `CC(C)=CCc1c(O)cc2occ(-c3ccc4c(c3)OCO4)c(=O)c2c1O`, the Kd was > 4 mM (inactive).

As to `O=C(CSc1ncn[nH]1)c1ccc2c(c1)OCCO2`, the Kd was > 4 mM (inactive).

Regarding `O=C1CC(=O)N2N=C(c3ccccc3)SC2=N1`, the Kd was > 4 mM (inactive).

For the compound `OCn1nnn(-c2ccccc2)c1=S`, the Kd is > 4 mM (inactive).

For the compound `Cc1oc(-c2ccccc2)nc1CCO`, the Kd was > 4 mM (inactive).

`O=C(c1ccccc1)c1ccc(N2CCNCC2)cc1`: the Kd is > 4 mM (inactive).

For `CNC(=O)COc1cccc2c1CCNC2=O`, the Kd is > 4 mM (inactive).

As for `O=C(O)CCC(=O)NCc1cccnc1`, the Kd was > 4 mM (inactive).

In the case of `O=C(O)c1csc(-c2ccccc2)n1`, the Kd was > 4 mM (inactive).

Turning to `Nc1nc(-c2ccc(F)c(F)c2)cs1`, the Kd was > 4 mM (inactive).

In the case of `CN1CCN(CC(=O)N2CCc3ccccc32)CC1`, the Kd was > 4 mM (inactive).

`COC(=O)Cc1csc(N)n1`: the Kd was > 4 mM (inactive).

On to `COc1cc2cc3c4cc(OC)c(OC)cc4cc[n+]3c(C)c2cc1OC`, for which the Kd is > 4 mM (inactive).

As for `Cc1nc2sc3c(c2c(=N)n1N)CC(C)(C)OC3`, the Kd was > 4 mM (inactive).

Consider `CC(=O)Nc1cccc(N2C(=O)CCC2=O)c1`, for which the Kd was > 4 mM (inactive).

On to `NC(C(=O)O)C(O)c1ccccc1` (stereo unspecified), for which the Kd is > 4 mM (inactive).

As for `Cc1cccc(NC(=O)Nc2cc(C)on2)c1`, the Kd is > 4 mM (inactive).

With `Nc1cc(F)ccc1-n1ccnc1`, the Kd is > 4 mM (inactive).

For the compound `Cc1ccc(C)c(C(=O)n2cnnc2N)c1`, the Kd is > 4 mM (inactive).

In the case of `Cc1ccnc(NS(=O)(=O)c2cccs2)c1`, the Kd is > 4 mM (inactive).

For `COc1nc(C)ccc1-c1noc(-c2ccncc2)n1`, the Kd is > 4 mM (inactive).

Turning to `COC(=O)C1=CCCN(C)C1`, the Kd was > 4 mM (inactive).

Regarding `c1ccc(CCNc2ncnc3nc[nH]c23)cc1`, the Kd is > 4 mM (inactive).

As for `O=C1NC(=S)N/C1=C\c1cccc([N+](=O)[O-])c1`, the Kd is > 4 mM (inactive).

As to `CC(=O)C1CC[C@H]2C3CC[C@H]4C[C@H](O)CC[C@]4(C)C3CC[C@]12C` (stereo partly specified), the Kd was > 4 mM (inactive).

Consider `O=C(c1ccco1)N1CCN(c2ccc(Cl)cc2)CC1`, for which the Kd is > 4 mM (inactive).

Consider `CCOCC(=O)NCc1n[nH]c(=O)c2ccccc12`, for which the Kd is > 4 mM (inactive).

Turning to `COc1ccccc1NS(=O)(=O)c1c[nH]c(=O)[nH]c1=O`, the Kd is > 4 mM (inactive).

On to `COC(=O)c1cccc(Cn2nnc3ccccc3c2=O)c1`, for which the Kd is > 4 mM (inactive).

Regarding `COC1C=CC23c4cc5c(cc4CN(CC2O)[C@@H]3C1)OCO5` (stereo partly specified), the Kd was > 4 mM (inactive).

`O=C(CN1CCOCC1)Nc1nccs1`: the Kd is > 4 mM (inactive).

On to `CN1CCN(c2ccc(N)cc2)CC1`, for which the Kd was > 4 mM (inactive).

For the compound `CC(=O)c1cc2c(s1)SCC(=O)N2`, the Kd was > 4 mM (inactive).

On to `COc1ccc(-c2noc(-c3ccco3)n2)cc1OC`, for which the Kd is > 4 mM (inactive).

In the case of `COc1c2ccoc2nc2c(OC)c(OCC(O)C(C)(C)O)ccc12` (stereo unspecified), the Kd is > 4 mM (inactive).

As to `COc1cc(O)c2c(=O)cc(-c3ccc(OC)c(-c4c(O)cc(O)c5c(=O)cc(-c6ccc(O)cc6)oc45)c3)oc2c1`, the Kd is > 4 mM (inactive).

As for `NC(=O)COc1ccccc1O`, the Kd is > 4 mM (inactive).

In the case of `Nc1nc2c3ccccc3nc(Cc3ccccc3)n2n1`, the Kd was > 4 mM (inactive).

`COc1cc2c(cc1O)[C@@H](Cc1ccc(O)cc1)[N+](C)(C)CC2`: the Kd is > 4 mM (inactive).

`Cc1cc[n+](-c2nc([O-])sc2C=O)cc1`: the Kd was > 4 mM (inactive).

In the case of `O=C(CSc1nnc2ccccn12)N1CCOCC1`, the Kd was > 4 mM (inactive).

Regarding `O=C(Nc1ncccn1)c1cccc(F)c1`, the Kd is > 4 mM (inactive).

For the compound `Nc1ccc(N2CCOCC2)cc1`, the Kd was > 4 mM (inactive).

On to `COc1ccc2c(c1)OCC(Cc1ccc(OC)c(OC(C)=O)c1)C2=O` (stereo unspecified), for which the Kd is > 4 mM (inactive).

Consider `Cc1onc(-c2ccccc2)c1C(=O)O`, for which the Kd was > 4 mM (inactive).

Regarding `CC(=O)N(c1ccccc1)C1C=CS(=O)(=O)C1` (stereo unspecified), the Kd is > 4 mM (inactive).

Turning to `CN1CCN(CC(O)c2ccccc2)CC1` (stereo unspecified), the Kd was > 4 mM (inactive).

In the case of `Cc1cc(C)nc(/N=C(/N)N2CCOCC2)n1`, the Kd was > 4 mM (inactive).

As for `O=C(NCc1cccc(Cl)c1)c1cccnc1`, the Kd is > 4 mM (inactive).

Regarding `Cc1cc(NC(=O)NCCCSc2nncn2C)no1`, the Kd is > 4 mM (inactive).

`Cc1ccc(CO)o1`: the Kd was > 4 mM (inactive).

Consider `COc1ccc(/C=C2/C(=O)N=C(N)N2C)cc1OC`, for which the Kd was > 4 mM (inactive).

Regarding `CC1(NC(=O)NCc2ccccc2)CCS(=O)(=O)C1` (stereo unspecified), the Kd was > 4 mM (inactive).

Take `CCOC(=O)C1=C(C)N2CCN=C2S1`: the Kd is > 4 mM (inactive).

On to `O=C(CSc1ccc(Cl)cc1)N1CCOCC1`, for which the Kd is > 4 mM (inactive).

`CCOc1ccc(-c2n[nH]c(=S)n2C)cc1`: the Kd was > 4 mM (inactive).

Regarding `C=CCNC(=O)c1ccc(Cl)cc1Cl`, the Kd is > 4 mM (inactive).
